{"source": "patent US12577231B2", "about": "“Androgen receptor PROTACS” (GlaxoSmithKline Intellectual Property Development Limited, priority 2023, dated 2026)", "data": [{"target": "T1, Androgen Receptor dual T878A/L702H mutant protein (Homo sapiens, UniProt P10275, L702H/T878A)", "T1 construct": "host or cells: MDA-PCa-2b", "T1 sequence (P10275 1-920 L702H/T878A)": "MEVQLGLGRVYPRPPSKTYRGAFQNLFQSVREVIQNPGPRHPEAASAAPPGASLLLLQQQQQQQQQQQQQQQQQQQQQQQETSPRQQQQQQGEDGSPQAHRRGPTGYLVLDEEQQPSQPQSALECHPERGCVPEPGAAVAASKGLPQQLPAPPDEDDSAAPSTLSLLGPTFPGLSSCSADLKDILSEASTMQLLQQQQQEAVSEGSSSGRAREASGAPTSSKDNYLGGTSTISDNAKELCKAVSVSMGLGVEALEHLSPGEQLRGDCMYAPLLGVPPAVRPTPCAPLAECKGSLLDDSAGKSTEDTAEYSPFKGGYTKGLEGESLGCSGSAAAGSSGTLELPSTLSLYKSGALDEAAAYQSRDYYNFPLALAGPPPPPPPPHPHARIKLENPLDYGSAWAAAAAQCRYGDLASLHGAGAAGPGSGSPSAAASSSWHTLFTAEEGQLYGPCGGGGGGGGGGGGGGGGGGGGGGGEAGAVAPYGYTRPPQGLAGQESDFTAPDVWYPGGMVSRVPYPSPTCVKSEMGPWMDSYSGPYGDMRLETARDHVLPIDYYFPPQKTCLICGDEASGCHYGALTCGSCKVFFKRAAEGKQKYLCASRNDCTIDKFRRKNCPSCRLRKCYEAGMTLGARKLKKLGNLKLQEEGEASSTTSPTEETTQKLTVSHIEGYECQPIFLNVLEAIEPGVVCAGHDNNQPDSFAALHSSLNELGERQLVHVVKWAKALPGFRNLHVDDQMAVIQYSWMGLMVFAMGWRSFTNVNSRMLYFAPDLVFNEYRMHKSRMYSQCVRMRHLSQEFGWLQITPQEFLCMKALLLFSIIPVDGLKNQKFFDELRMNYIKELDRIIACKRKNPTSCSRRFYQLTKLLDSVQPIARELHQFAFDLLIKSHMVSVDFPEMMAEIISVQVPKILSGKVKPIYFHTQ", "test": "Dual Mutant (T878A/L702H) Androgen Receptor Degradation Assay (HTRF, MDA-PCa-2b cells)", "type": "cell-based", "conditions": "18 h, 18 h incubation, read-out: mean asymptote max", "procedure": "Degradation of Androgen Receptor dual T878A/L702H mutant protein in human MDA-PCa-2b (ATCC) cells treated with PROTACs was quantified using the HTRF Human Androgen Receptor Detection Kit (PerkinElmer) in 384 well assay plate format. 10 mM DMSO (Sigma-Aldrich) stock solutions of PROTACs were prepared and diluted across an 11 concentration, 3-fold increment range, and 25 nL dispensed into a white opaque bottomed 384 well assay plate (Thermofisher) using an acoustic ECHO dispenser (Labcyte). Cells were cultured in growth medium (BRFF—HPC-1 (Athena ES) supplemented with 20% FBS (Gibco), penicillin 50U/mL and streptomycin 50 μg/mL (Gibco, #15140-122)) in collagen I or poly-D-lysine coated T175 flasks (Corning, #356487 or #356539, respectively). For the assay, cells were harvested from the flask, centrifuged at 200 g for 5 min and then resuspended in the growth medium. 25 μl of cell suspension containing 10,000 cells was dispensed into each well of the assay plate containing the test compounds, which was then incubated for 18 h at 37° C./5% CO2. Control wells were included on each assay plate, with assay medium without cells being the no AR remaining 100% effect control, and cells treated with DMSO vehicle only, without PROTAC, the 0% effect control. After 18 h incubation 8 μl of supplemented lysis buffer from HTRF kit was added to each well and the plate shaken at 500 rpm for 1 h at room temperature. 8 μl of antibody mix in Detection buffer from HTRF kit was added to each well and the plate was incubated for 2 h in dark at mom temperature. The fluorescence was measured at both 620 nm and 665 nm using an excitation wavelength of 337 nm with a PHERAstar microplate reader (BMG Labtech) and the % AR protein remaining in each well was calculated by normalising the HTRF ratio (665 nm signal/620 nm signal) value to the control wells mentioned above. Parameters corresponding to the potency and efficacy estimates of the PROTACs were obtained from these normalised values using curve fitting software (IDBS ActivityBase). These included the DC50 and the Dmax estimates. Two versions of the DC50, called relative DC50 and absolute DC50, were typically generated. These are the inflection point of a fitted 4 parameter sigmoidal response curve and the interpolated concentration of PROTAC corresponding to 50% of the protein being degraded, respectively. The Dmax parameter was the maximum experimentally observed degradation and the asymptote max parameter the fitted response curve asymptote maximum.", "units": {"Dmax": "%"}, "values": [{"compound": "CC1(C)[C@H](NC(=O)c2ccc(N3CCC(CN4CC[C@H](n5ncc6c(N7CCC(=O)NC7=O)cccc65)C4)CC3)c(F)c2)C(C)(C)[C@H]1Oc1ccc(C#N)c2ncccc12", "note": "[Example 37, N-((1r,3r)-3-((8-Cyanoquinolin-5-yl)oxy)-2,2,4,4-tetramethylcyclobutyl)-4-(4-(((S)-3-(4-(2,4-dioxotetrahydropyrimidin-1(2H)-yl)-1H-indazol-1-yl)pyrrolidin-1-yl)methyl)piperidin-1-yl)-3-fluorobenzamide]", "Dmax": "≥ 50"}, {"compound": "CC1(C)[C@H](NC(=O)c2ccc(N3CC[C@H](CN4CCC(n5ncc6c(N7CCC(=O)NC7=O)cccc65)CC4)C3)c(F)c2)C(C)(C)[C@H]1Oc1ccc(C#N)c2ncccc12", "note": "[Example 34, N-((1r,3R)-3-((8-Cyanoquinolin-5-yl)oxy)-2,2,4,4-tetramethylcyclobutyl)-4-((R)-3-((4-(4-(2,4-dioxotetrahydropyrimidin-1(2H)-yl)-1H-indazol-1-yl)piperidin-1-yl)methyl)pyrrolidin-1-yl)-3-fluorobenzamide]", "Dmax": "≥ 50"}, {"compound": "CC1(C)[C@H](NC(=O)c2ccc(N3CCC(CN4CCC(n5ccc6c(N7CCC(=O)NC7=O)cccc65)CC4)CC3)c(F)c2)C(C)(C)[C@H]1Oc1ccc(C#N)c2ncccc12", "note": "[Example 31, N-((1r,3r)-3-((8-Cyanoquinolin-5-yl)oxy)-2,2,4,4-tetramethylcyclobutyl)-4-(4-((4-(4-(2,4-dioxotetrahydropyrimidin-1(2H)-yl)-1H-indol-1-yl)piperidin-1-yl)methyl)piperidin-1-yl)-3-fluorobenzamide]", "Dmax": "≥ 50"}, {"compound": "CC1(C)[C@H](NC(=O)c2ccc(N3CCC(CN4CCC(n5ncc6c(N7CCC(=O)NC7=O)ccnc65)CC4)CC3)c(F)c2)C(C)(C)[C@H]1Oc1ccc(C#N)c2ncccc12", "note": "[Example 40, N-((1r,3r)-3-((8-Cyanoquinolin-5-yl)oxy)-2,2,4,4-tetramethylcyclobutyl)-4-(4-((4-(4-(2,4-dioxotetrahydropyrimidin-1(2H)-yl)-1H-pyrazolo[3,4-b]pyridin-1-yl)piperidin-1-yl)methyl)piperidin-1-yl)-3-fluorobenzamide]", "Dmax": "≥ 50"}, {"compound": "CC1(C)[C@H](NC(=O)c2ccc(N3CCC(CN4CCC(n5ncc6c(N7CCC(=O)NC7=O)cc(Cl)cc65)CC4)CC3)c(F)c2)C(C)(C)[C@H]1Oc1ccc(C#N)c2ncccc12", "note": "[Example 41, 4-(4-((4-(6-Chloro-4-(2,4-dioxotetrahydropyrimidin-1(2H)-yl)-1H-indazol-1-yl)piperidin-1-yl)methyl)piperidin-1-yl)-/-((1r,3r)-3-((8-cyanoquinolin-5-yl)oxy)-2,2,4,4-tetramethylcyclobutyl)-3-fluorobenzamide]", "Dmax": "≥ 50"}, {"compound": "CC1(C)[C@H](NC(=O)c2ccc(N3CCC(O)(CN4CCC(n5ncc6c(N7CCC(=O)NC7=O)cccc65)CC4)CC3)c(F)c2)C(C)(C)[C@H]1Oc1ccc(C#N)c2ncccc12", "note": "[Example 48, N-((1r,3r)-3-((8-Cyanoquinolin-5-yl)oxy)-2,2,4,4-tetramethylcyclobutyl)-4-(4-((4-(4-(2,4-dioxotetrahydropyrimidin-1(2H)-yl)-1H-indazol-1-yl)piperidin-1-yl)methyl)-4-hydroxypiperidin-1-yl)-3-fluorobenzamide]", "Dmax": "≥ 50"}, {"compound": "CC1(C)[C@H](NC(=O)c2ccc(N3CCC(CN4CC[C@H](n5ncc6c(N7CCC(=O)NC7=O)cccc65)[C@H](F)C4)CC3)c(F)c2)C(C)(C)[C@H]1Oc1ccc(C#N)c2ncccc12", "note": "[Example 46, N-((1r,3r)-3-((8-Cyanoquinolin-5-yl)oxy)-2,2,4,4-tetramethylcyclobutyl)-4-(4-(((3R,4S)-4-(4-(2,4-dioxotetrahydropyrimidin-1(2H)-yl)-1H-indazol-1-yl)-3-fluoropiperidin-1-yl)methyl)piperidin-1-yl)-3-fluorobenzamide]", "Dmax": "≥ 50"}, {"compound": "CC1(C)[C@H](NC(=O)c2ccc(N3CCC(CN4CC[C@@H](n5ncc6c(N7CCC(=O)NC7=O)cccc65)[C@@H](F)C4)CC3)c(F)c2)C(C)(C)[C@H]1Oc1ccc(C#N)c2ncccc12", "note": "[Example 45, N-((1r,3r)-3-((8-Cyanoquinolin-5-yl)oxy)-2,2,4,4-tetramethylcyclobutyl)-4-(4-(((35,4R)-4-(4-(2,4-dioxotetrahydropyrimidin-1(2H)-yl)-1H-indazol-1-yl)-3-fluoropiperidin-1-yl)methyl)piperidin-1-yl)-3-fluorobenzamide]", "Dmax": 49}, {"compound": "CC1(C)[C@H](NC(=O)c2ccc(N3CCC(CN4CCC(n5ncc6c(N7CCC(=O)NC7=O)cccc65)CC4)CC3)c(F)c2)C(C)(C)[C@H]1Oc1cnc(C#N)c(Cl)c1", "note": "[Example 3, N-((1r,3r)-3-((5-Chloro-6-cyanopyridin-3-yl)oxy)-2,2,4,4-tetramethylcyclobutyl)-4-(4-((4-(4-(2,4-dioxotetrahydropyrimidin-1(2H)-yl)-1H-indazol-1-yl)piperidin-1-yl)methyl)piperidin-1-yl)-3-fluorobenzamide]", "Dmax": "≥ 50"}, {"compound": "CC1(C)[C@H](NC(=O)c2ccc(N3CCC4(CC3)CC(N3CCC(n5ncc6c(N7CCC(=O)NC7=O)cccc65)CC3)C4)c(F)c2)C(C)(C)[C@H]1Oc1ccc(C#N)c2ncccc12", "note": "[Example 49, N-((1r,3r)-3-((8-Cyanoquinolin-5-yl)oxy)-2,2,4,4-tetramethylcyclobutyl)-4-(2-(4-(4-(2,4-dioxotetrahydropyrimidin-1(2H)-yl)-1H-indazol-1-yl)piperidin-1-yl)-7-azaspiro[3.5]nonan-7-yl)-3-fluorobenzamide]", "Dmax": "≥ 50"}, {"compound": "CC1(C)[C@H](NC(=O)c2ccc(N3CCC(CN4CCC(n5ncc6c(N7CCC(=O)NC7=O)cccc65)CC4)CC3)c(F)c2)C(C)(C)[C@H]1Oc1ccc(C#N)c2c1CCCO2", "note": "[Example 8, N-((1r,3r)-3-((8-Cyanochroman-5-yl)oxy)-2,2,4,4-tetramethylcyclobutyl)-4-(4-((4-(4-(2,4-dioxotetrahydropyrimidin-1(2H)-yl)-1H-indazol-1-yl)piperidin-1-yl)methyl)piperidin-1-yl)-3-fluorobenzamide]", "Dmax": "≥ 50"}, {"compound": "CC1(C)[C@H](NC(=O)c2ccc(N3CCC(CN4CCC(n5ncc6c(N7CCC(=O)NC7=O)c(F)ccc65)CC4)CC3)c(F)c2)C(C)(C)[C@H]1Oc1ccc(C#N)c2ncccc12", "note": "[Example 50, N-((1r,3r)-3-((8-Cyanoquinolin-5-yl)oxy)-2,2,4,4-tetramethylcyclobutyl)-4-(4-((4-(4-(2,4-dioxotetrahydropyrimidin-1(2H)-yl)-5-fluoro-1H-indazol-1-yl)piperidin-1-yl)methyl)piperidin-1-yl)-3-fluorobenzamide]", "Dmax": "≥ 50"}, {"compound": "CC1(C)[C@H](NC(=O)c2ccc(N3CCC(CN4CCC(n5ncc6c(N7CCC(=O)NC7=O)cc(C(F)(F)F)cc65)CC4)CC3)c(F)c2)C(C)(C)[C@H]1Oc1ccc(C#N)c2ncccc12", "note": "[Example 42, N-((1r,3r)-3-((8-Cyanoquinolin-5-yl)oxy)-2,2,4,4-tetramethylcyclobutyl)-4-(4-((4-(4-(2,4-dioxotetrahydropyrimidin-1(2H)-yl)-6-(trifluoromethyl)-1H-indazol-1-yl)piperidin-1-yl)methyl)piperidin-1-yl)-3-fluorobenzamide]", "Dmax": "≥ 50"}]}]}
